Patent US20230123588A1, “METHODS OF SLOWING BRAIN VOLUME LOSS” (ACTELION PHARMACEUTICALS LTD, priority 2020, published 2023)

What was measured:
[1] = tested on: adult subjects with brain volume loss (relapsing multiple sclerosis); conditions: human, in vivo
Description: Based on the individual case review, most ALT/AST increases ≥3×ULN occurred as a single transient asymptomatic episode, resolving with continued treatment or after protocol mandated treatment discontinuation. All but one case of bilirubin increase ≥2×ULN occurred in subjects with pre-treatment bilirubin increases. One case of potential Hy's law occurred in a subject with pre-existing transaminase elevation (ALT>5×ULN), and the event fully resolved within 2 weeks after treatment discontinuation.

[2] = tested on: adult subjects with brain volume loss (relapsing multiple sclerosis); test: 12-lead ECG heart rate and first-dose monitoring on Day 1; type: in vivo, human; conditions: for mean heart rate reduction compared to pre-dose: Day 1, 2-hours post dose, 12-lead ECG, ponesimod 20 mg arm, teriflunomide 14 mg; for subjects with asymptomatic post-dose HR≤40 bpm: Day 1, all had pre-treatment HR<55 bpm
Experimental: The incidence of treatment-emergent heart rate and rhythm (including hypotension) AESIs on Day 1 was higher in the ponesimod 20 mg arm (2.1%) than in the teriflunomide 14 mg arm (0.4%). However, the overall incidence of first dose AESI on Day 1 was low (2.1%) in ponesimod. None of these events were serious nor led to permanent discontinuation of study treatment. Discharge criteria at 4 hours post-dose were met for ca. 99% of subjects. […] ECG HR effect: nadir at 2 hours post-dose (siponimod—3-4 hours, fingolimod—around by 6 hours). Low incidence of low HR outliers (post-dose HR≤40 bpm), all 3 of them with a pre-treatment HR of <55 bpm, which is a known risk factor for post-dose bradycardia with S1P receptor modulators.
The mean heart rate reduction compared to pre-dose reached a maximum for ponesimod 20 mg at 2-hours post dose, −8.7 bpm compared to −1.7 bpm for teriflunomide 14 mg (FIG. 2).

[3] = tested on: adult subjects with brain volume loss (relapsing multiple sclerosis); test: Percent change in brain volume from baseline (MRI, SIENA) in randomized double-blind study of ponesimod vs teriflunomide; type: in vivo, human; conditions: for LS Mean difference in percent change in brain volume (Ponesimod 20 mg − Teriflunomide 14 mg) / LS Mean percent change in brain volume from baseline: Week 108; for brain volume loss (BVL) up to EOS: teriflunomide 14 mg
Experimental: Main analysis set for efficacy: The Full Analysis Set (FAS) included all randomized subjects. Subjects were evaluated according to the treatment they were randomized to.
Efficacy variable/timepoint: The endpoint was brain volume loss up to the end of study (EOS). All available data up to EOS, regardless of treatment discontinuation was included (ITT approach).
Using a mixed model with linear time effect (adjusted for stratification factors, presence/absence of GD+T1 lesions at baseline, and normalized brain volume at baseline), the LS mean percent change from baseline to Week 108 in brain volume was −0.91% in the ponesimod 20 mg group (n=436) and −1.25% in the teriflunomide 14 mg group (n=434). The LS mean difference (ponesimod 20 mg—teriflunomide 14 mg) was 0.34% (95% CLs: 0.17, 0.50; p<0.0001).
Results of the analysis using a repeated measurements ANOVA model (MMRM) were consistent with that described above with respect to the mixed model with linear time effect.

[4] = tested on: adult subjects with brain volume loss (relapsing multiple sclerosis); test: Reasons for premature treatment discontinuation in the study; type: in vivo; conditions: for subjects discontinued due to AEs or tolerability related reasons / subjects discontinued due to efficacy related reasons: ponesimod 20 mg, teriflunomide 14 mg
Experimental: A total of 1468 subjects were screened. Of those, 1133 subjects were randomized (567 to ponesimod 20 mg and 566 to teriflunomide 14 mg) across 162 sites in 28 countries, and 1131 subjects received at least one dose of study drug. The disposition of subjects is summarized in Table 1 and a summary of reasons (primary reason) for treatment discontinuation are shown in Table 2. Overall treatment and study discontinuation were balanced across both treatment arms. A total of 6.5% and 2.5% of the subjects discontinued due to AEs or tolerability related reasons in ponesimod 20 mg and teriflunomide 14 mg, respectively, while 1.9% and 4.3% discontinued due to efficacy related reasons. There were 2 deaths reported during the study—both on teriflunomide 14 mg.

[5] = tested on: adult subjects with brain volume loss (relapsing multiple sclerosis); test: Percent change in brain volume from baseline (MRI, SIENA) in randomized double-blind study of ponesimod vs teriflunomide; type: in vivo, human; conditions: Week 60
[6] = tested on: adult subjects with brain volume loss (relapsing multiple sclerosis); test: Treatment-emergent adverse events, AESIs and deaths (Safety Set); type: in vivo, human; conditions: Ponesimod 20 mg N = 565, Teriflunomide 14 mg N = 566
Experimental: The most common AESIs were reported for category hepatobiliary disorders/liver enzyme abnormality (25.7% vs 14.5% in ponesimod 20 mg compared to teriflunomide 14 mg, respectively), followed by category hypertension (10.1% vs 9.0%), and pulmonary events (8.0% vs 2.7%).

[7] = other S1P receptor modulators, given for comparison; cited from earlier work
[8] = mixed model with linear time effect
[9] = mixed model with linear time effect, Ponesimod 20 mg (436 subjects), Teriflunomide 14 mg (434 subjects)
[10] = repeated measurements ANOVA model (MMRM)
[11] = repeated measurements ANOVA model (MMRM), Ponesimod 20 mg (418 subjects), Teriflunomide 14 mg (414 subjects)
[12] = ponesimod 20 mg, up to end of study
[13] = Safety Set, Ponesimod 20 mg N = 565, Teriflunomide 14 mg N = 566

| Compound | proportion of subjects who experienced ALT increase >8×ULN [1] [%] | proportion of subjects who experienced ALT increase ≥3×ULN [1] [%] | mean heart rate reduction compared to pre-dose [2] [bpm] | subjects with asymptomatic post-dose HR≤40 bpm [2] | LS Mean percent change in brain volume from baseline [3, 9] [%] | LS Mean percent change in brain volume from baseline [3, 11] [%] | brain volume loss (BVL) up to EOS [3, 12] [%] | Premature discontinuation: Death (number) [4, 13] [n] | Premature discontinuation: Physician decision, Adverse event (number) [4, 13] [n] | Premature discontinuation: Physician decision, Adverse event (percent) [4, 13] | Premature discontinuation: Physician decision, Lack of efficacy/treatment failure (number) [4, 13] [n] | Premature discontinuation: Physician decision, Lack of efficacy/treatment failure (percent) [4, 13] | Premature discontinuation: Pre-specified study treatment discontinuation criteria (number) [4, 13] [n] | Premature discontinuation: Pre-specified study treatment discontinuation criteria (percent) [4, 13] | Premature discontinuation: Subject decision, Efficacy related (number) [4, 13] [n] | Premature discontinuation: Subject decision, Efficacy related (percent) [4, 13] | Premature discontinuation: Subject decision, Tolerability related (number) [4, 13] [n] | Premature discontinuation: Subject decision, Tolerability related (percent) [4, 13] | subjects discontinued due to AEs or tolerability related reasons [4] [%] | subjects discontinued due to efficacy related reasons [4] [%] | other results |
| --- | --- | --- | --- | --- | --- | --- | --- | --- | --- | --- | --- | --- | --- | --- | --- | --- | --- | --- | --- | --- | --- |
| CCC/N=C1\S/C(=C\c2ccc(OC[C@H](O)CO)c(Cl)c2)C(=O)N1c1ccccc1C [Ponesimod, (R)-5-[3-chloro-4-(2,3-dihydroxy-propoxy)-benz[Z]ylidene]-2-([Z]-propylimino)-3-o-tolyl-thiazolidin-4-one] | 0.7 | 17.3 | −8.7 | 3 subjects | −0.91 | −0.92 | −0.91 | 0 | 29 | (5.1) % | 4 | (0.7) % | 12 | (2.1) % | 7 | (1.2) % | 8 | (1.4) % | 6.5 | 1.9 | 2nd or higher degree AV block ([2]; Day 1, first dose): No 2nd or higher degree AV block was observed; subjects meeting discharge criteria at 4 hours post-dose ([2]; Day 1, first dose): ca. 99%; time of ECG HR nadir (maximum mean heart rate reduction) post-dose ([2]; Day 1, first dose): 2 h; LS Mean difference in percent change in brain volume (Ponesimod 20 mg − Teriflunomide 14 mg) [3, 8]: 0.34%; LS Mean difference in percent change in brain volume (Ponesimod 20 mg − Teriflunomide 14 mg) [3, 10]: 0.34%; reduction of brain volume loss up to EOS compared to teriflunomide 14 mg ([3]; ponesimod 20 mg): about 27%; efficacy in slowing brain volume loss over teriflunomide (conclusion) ([3]; ponesimod 20 mg vs teriflunomide 14 mg): superior efficacy; difference in BVL up to EOS, ponesimod 20 mg vs teriflunomide 14 mg ([3]; up to end of study, p<0.0001): 0.34%; LS Mean difference in percent change in brain volume (Ponesimod 20 mg − Teriflunomide 14 mg) [5, 8]: 0.08%; LS Mean percent change in brain volume from baseline [5, 9]: −0.45%; LS Mean difference in percent change in brain volume (Ponesimod 20 mg − Teriflunomide 14 mg) [5, 10]: 0.13%; LS Mean percent change in brain volume from baseline [5, 11]: −0.43%; Subject with at least one Fatal AE [6]: 0 n (%) |
| C/C(O)=C(\C#N)C(=O)Nc1ccc(C(F)(F)F)cc1 [Teriflunomide] | 2.1 | 8.3 | −1.7 | none | −1.25 | −1.26 | −1.25 | 2 | 9 | (1.6) % | 10 | (1.8) % | 16 | (2.8) % | 14 | (2.5) % | 5 | (0.9) % | 2.5 | 4.3 | Premature discontinuation: Death (percent) [4, 13]: (0.4) %; LS Mean percent change in brain volume from baseline [5, 9]: −0.53%; LS Mean percent change in brain volume from baseline [5, 11]: −0.55%; Subject with at least one Fatal AE [6]: 2 (0.4) n (%) |
| CCCCCCCCc1ccc(CCC(N)(CO)CO)cc1 [fingolimod] |  |  |  |  |  |  |  |  |  |  |  |  |  |  |  |  |  |  |  |  | time of ECG HR nadir post-dose [7]: ~6 h |
| CCc1cc(/C(C)=N/OCc2ccc(C3CCCCC3)c(C(F)(F)F)c2)ccc1CN1CC(C(=O)O)C1 [siponimod] |  |  |  |  |  |  |  |  |  |  |  |  |  |  |  |  |  |  |  |  | time of ECG HR nadir post-dose [7]: 3 to 4 h |
